Active and inactive are the calls of the source. Some results are limits rather than exact numbers.

A word on the Ki: it is a dissociation constant, usually derived from enzyme kinetics or from competition with a known ligand.

ALK tyrosine kinase receptor, sequence (Q9UM73 whole entry): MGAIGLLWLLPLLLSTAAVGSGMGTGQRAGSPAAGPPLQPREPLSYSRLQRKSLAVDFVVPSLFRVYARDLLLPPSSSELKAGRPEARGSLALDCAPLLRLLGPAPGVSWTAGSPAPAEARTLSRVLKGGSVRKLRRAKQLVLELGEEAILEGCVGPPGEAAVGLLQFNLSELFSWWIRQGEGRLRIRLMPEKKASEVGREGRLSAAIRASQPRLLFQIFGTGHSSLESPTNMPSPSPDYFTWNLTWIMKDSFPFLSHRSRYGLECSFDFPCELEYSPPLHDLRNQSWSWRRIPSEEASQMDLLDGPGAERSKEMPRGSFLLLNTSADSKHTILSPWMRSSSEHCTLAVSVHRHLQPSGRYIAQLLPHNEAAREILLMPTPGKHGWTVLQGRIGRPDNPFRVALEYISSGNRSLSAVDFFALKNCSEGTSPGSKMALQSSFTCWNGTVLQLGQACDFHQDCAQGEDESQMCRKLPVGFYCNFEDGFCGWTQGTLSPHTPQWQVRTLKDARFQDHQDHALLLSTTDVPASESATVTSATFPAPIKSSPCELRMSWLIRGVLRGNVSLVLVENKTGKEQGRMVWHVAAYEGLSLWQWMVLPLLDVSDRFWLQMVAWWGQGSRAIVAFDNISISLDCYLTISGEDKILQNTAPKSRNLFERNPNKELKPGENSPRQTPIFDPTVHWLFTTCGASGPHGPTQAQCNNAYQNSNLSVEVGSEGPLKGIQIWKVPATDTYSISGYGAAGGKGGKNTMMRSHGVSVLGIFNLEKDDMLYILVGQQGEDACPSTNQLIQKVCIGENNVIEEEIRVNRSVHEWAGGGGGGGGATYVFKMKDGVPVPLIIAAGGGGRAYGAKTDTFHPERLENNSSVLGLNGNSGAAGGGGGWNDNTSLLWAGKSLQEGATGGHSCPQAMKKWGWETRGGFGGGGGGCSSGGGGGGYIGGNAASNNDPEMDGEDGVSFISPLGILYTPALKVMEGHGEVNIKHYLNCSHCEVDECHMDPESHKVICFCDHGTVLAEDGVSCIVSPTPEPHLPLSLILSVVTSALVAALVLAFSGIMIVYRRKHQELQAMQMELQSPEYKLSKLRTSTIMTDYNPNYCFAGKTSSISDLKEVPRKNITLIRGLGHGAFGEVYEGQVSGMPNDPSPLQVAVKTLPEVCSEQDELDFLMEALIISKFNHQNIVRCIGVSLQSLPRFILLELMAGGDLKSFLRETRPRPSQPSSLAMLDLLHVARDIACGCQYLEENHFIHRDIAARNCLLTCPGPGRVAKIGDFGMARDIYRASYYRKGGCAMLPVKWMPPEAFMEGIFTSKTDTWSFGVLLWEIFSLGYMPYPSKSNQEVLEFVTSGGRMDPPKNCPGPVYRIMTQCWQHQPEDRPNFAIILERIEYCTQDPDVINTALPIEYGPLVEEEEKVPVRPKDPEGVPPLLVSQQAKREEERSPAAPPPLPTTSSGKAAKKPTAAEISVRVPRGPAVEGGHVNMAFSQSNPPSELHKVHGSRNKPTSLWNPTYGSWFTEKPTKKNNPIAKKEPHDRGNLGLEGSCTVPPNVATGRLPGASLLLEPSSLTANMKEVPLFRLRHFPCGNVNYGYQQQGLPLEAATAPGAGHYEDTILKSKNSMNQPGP

One assay concerns the target ALK tyrosine kinase receptor (Homo sapiens, UniProt Q9UM73). The assay is classed as functional.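 Also: ALK tested as one member of a kinase panel screen.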
`CS(=O)(=O)N(Cc1ccc2[nH]c(=O)c3cccn3c2c1)C1CC1`: the Ki is > 3.16 µM (inactive).

As to `CS(=O)(=O)Nc1ccc(Nc2ccc3[nH]nc(N)c3c2)cc1`, the Ki was > 6.31 µM (inactive).

For the molecule `O=C(Nc1n[nH]c2ccc(-c3cn(Cc4ccccc4)nn3)cc12)c1cc(F)ccc1F`, the Ki is > 6.31 µM (inactive).

In the next assay the target is Death-associated protein kinase 3 (Homo sapiens, UniProt O43293). The assay is classed as functional.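 Also: measured as one member of a kinome-wide profiling panel.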
Death-associated protein kinase 3, sequence (O43293 whole entry): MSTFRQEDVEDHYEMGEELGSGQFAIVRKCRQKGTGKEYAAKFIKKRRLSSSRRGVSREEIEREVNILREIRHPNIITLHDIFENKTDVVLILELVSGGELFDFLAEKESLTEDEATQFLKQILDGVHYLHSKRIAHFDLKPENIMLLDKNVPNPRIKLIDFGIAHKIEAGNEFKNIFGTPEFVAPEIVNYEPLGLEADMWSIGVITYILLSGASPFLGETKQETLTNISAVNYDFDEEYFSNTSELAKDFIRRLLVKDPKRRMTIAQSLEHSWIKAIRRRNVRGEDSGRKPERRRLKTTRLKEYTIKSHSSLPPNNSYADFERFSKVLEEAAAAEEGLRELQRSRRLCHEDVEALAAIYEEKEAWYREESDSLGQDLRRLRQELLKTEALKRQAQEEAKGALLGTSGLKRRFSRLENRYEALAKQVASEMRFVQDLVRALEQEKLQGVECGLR
Turning to `CS(=O)(=O)N(Cc1ccc2[nH]c(=O)c3cccn3c2c1)C1CC1`, the Ki is > 3.16 µM (inactive).

Turning to `CS(=O)(=O)Nc1ccc(Nc2ccc3[nH]nc(N)c3c2)cc1`, the Ki is > 5.01 µM (inactive).

Take `O=C(Nc1n[nH]c2ccc(-c3cn(Cc4ccccc4)nn3)cc12)c1cc(F)ccc1F`: the Ki was 0.0501 µM (active).

The target of a further assay is Serine/threonine-protein kinase pim-1 (Homo sapiens, UniProt P11309). The format is functional.
Serine/threonine-protein kinase pim-1, sequence (P11309 whole entry): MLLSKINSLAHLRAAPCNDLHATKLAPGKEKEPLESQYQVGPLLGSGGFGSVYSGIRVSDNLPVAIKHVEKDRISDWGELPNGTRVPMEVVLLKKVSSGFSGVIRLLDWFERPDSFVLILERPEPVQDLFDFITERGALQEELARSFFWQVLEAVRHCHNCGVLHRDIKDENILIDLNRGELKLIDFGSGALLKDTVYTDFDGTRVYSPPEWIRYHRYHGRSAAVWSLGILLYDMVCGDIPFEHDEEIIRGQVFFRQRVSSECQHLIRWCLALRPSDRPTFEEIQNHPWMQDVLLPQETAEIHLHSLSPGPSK
For `CS(=O)(=O)N(Cc1ccc2[nH]c(=O)c3cccn3c2c1)C1CC1`, the Ki was > 5.01 µM (inactive).

`CS(=O)(=O)Nc1ccc(Nc2ccc3[nH]nc(N)c3c2)cc1`: the Ki is > 6.31 µM (inactive).

For `O=C(Nc1n[nH]c2ccc(-c3cn(Cc4ccccc4)nn3)cc12)c1cc(F)ccc1F`, the Ki was 3.98 µM (active).

Another assay deals with Tyrosine-protein kinase BTK (Homo sapiens, UniProt Q06187). The assay is classed as functional.
Tyrosine-protein kinase BTK, sequence (Q06187 whole entry): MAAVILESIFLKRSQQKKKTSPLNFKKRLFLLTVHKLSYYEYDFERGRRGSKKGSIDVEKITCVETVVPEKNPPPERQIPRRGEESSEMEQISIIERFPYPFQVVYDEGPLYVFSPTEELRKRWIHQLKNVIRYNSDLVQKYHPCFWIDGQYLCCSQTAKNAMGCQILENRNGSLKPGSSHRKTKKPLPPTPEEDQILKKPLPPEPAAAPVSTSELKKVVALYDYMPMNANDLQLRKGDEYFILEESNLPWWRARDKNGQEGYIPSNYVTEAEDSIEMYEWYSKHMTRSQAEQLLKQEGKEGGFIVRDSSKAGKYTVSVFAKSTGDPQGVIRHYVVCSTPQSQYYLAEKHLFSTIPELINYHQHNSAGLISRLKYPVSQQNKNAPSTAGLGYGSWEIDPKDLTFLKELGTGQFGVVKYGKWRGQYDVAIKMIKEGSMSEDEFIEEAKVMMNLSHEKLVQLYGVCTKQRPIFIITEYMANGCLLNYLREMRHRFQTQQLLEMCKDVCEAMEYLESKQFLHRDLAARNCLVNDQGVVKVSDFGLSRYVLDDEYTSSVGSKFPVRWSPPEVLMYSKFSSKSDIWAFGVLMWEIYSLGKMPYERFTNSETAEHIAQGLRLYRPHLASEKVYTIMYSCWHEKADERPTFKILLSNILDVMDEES
For `CS(=O)(=O)N(Cc1ccc2[nH]c(=O)c3cccn3c2c1)C1CC1`, the Ki was > 3.16 µM (inactive).

Turning to `CS(=O)(=O)Nc1ccc(Nc2ccc3[nH]nc(N)c3c2)cc1`, the Ki is > 6.31 µM (inactive).

On to `O=C(Nc1n[nH]c2ccc(-c3cn(Cc4ccccc4)nn3)cc12)c1cc(F)ccc1F`, for which the Ki was > 6.31 µM (inactive).

Another assay addresses T1, Tyrosine-protein kinase JAK3 (Homo sapiens, UniProt P52333).
T1 sequence (P52333 whole entry): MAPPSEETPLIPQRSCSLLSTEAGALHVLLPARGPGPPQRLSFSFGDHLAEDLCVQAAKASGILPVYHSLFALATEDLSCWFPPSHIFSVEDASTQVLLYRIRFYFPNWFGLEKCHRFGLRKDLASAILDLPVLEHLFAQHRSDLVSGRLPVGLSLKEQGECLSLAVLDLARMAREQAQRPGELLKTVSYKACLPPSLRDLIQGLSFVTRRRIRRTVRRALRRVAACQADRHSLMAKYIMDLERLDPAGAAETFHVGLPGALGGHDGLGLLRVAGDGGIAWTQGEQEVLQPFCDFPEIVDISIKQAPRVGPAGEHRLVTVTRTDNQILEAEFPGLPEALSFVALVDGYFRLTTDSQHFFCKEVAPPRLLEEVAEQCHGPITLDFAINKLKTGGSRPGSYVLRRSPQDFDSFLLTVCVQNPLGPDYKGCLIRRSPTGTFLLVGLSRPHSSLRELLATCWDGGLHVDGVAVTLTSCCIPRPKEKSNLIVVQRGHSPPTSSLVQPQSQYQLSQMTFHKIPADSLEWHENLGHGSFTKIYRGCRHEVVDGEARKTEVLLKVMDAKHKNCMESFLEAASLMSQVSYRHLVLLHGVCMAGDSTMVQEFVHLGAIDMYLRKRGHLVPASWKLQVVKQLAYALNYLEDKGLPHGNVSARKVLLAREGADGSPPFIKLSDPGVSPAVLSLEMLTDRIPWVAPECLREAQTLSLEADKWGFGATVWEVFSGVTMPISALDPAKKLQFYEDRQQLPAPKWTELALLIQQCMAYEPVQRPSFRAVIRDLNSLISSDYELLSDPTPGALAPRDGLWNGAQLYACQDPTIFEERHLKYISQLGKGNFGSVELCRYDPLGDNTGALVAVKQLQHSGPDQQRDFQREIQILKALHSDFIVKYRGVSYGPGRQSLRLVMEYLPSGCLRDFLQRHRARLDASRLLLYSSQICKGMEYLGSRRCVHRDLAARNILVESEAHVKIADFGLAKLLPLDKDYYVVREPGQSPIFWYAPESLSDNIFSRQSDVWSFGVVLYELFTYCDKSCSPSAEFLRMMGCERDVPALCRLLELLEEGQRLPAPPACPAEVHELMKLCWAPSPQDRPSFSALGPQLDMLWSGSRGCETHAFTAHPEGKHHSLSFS
The assay is classed as functional.
Turning to `CS(=O)(=O)N(Cc1ccc2[nH]c(=O)c3cccn3c2c1)C1CC1`, the Ki is > 2.51 µM (inactive).

Turning to `CS(=O)(=O)Nc1ccc(Nc2ccc3[nH]nc(N)c3c2)cc1`, the Ki was > 5.01 µM (inactive).

As to `O=C(Nc1n[nH]c2ccc(-c3cn(Cc4ccccc4)nn3)cc12)c1cc(F)ccc1F`, the Ki was > 5.01 µM (inactive).

In a further assay the target is LIM domain kinase 1 (Homo sapiens, UniProt P53667). Kind of assay: Navigating the Kinome. Panel member name: LIMK1. The assay is classed as functional.
LIM domain kinase 1, sequence (P53667 whole entry, the tested form may be a part): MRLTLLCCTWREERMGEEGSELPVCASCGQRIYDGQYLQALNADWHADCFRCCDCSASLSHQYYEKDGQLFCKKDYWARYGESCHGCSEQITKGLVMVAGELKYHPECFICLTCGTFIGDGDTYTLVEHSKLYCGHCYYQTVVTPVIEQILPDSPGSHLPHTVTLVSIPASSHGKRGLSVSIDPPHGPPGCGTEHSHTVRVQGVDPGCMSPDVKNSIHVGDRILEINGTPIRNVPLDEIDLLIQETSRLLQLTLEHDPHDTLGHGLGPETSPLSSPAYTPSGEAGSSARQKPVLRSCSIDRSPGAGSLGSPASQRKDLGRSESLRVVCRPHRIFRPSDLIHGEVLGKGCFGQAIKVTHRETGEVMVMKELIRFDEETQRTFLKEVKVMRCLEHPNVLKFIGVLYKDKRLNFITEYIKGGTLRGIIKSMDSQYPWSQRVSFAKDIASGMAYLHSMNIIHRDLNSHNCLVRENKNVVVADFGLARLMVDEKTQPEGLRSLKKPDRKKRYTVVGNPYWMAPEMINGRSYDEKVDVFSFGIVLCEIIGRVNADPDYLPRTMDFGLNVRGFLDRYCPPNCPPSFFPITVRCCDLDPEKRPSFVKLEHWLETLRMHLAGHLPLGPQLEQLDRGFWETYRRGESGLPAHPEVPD
For the molecule `CS(=O)(=O)N(Cc1ccc2[nH]c(=O)c3cccn3c2c1)C1CC1`, the Ki is > 3.16 µM (inactive).

On to `CS(=O)(=O)Nc1ccc(Nc2ccc3[nH]nc(N)c3c2)cc1`, for which the Ki was 0.501 µM (active).

On to `O=C(Nc1n[nH]c2ccc(-c3cn(Cc4ccccc4)nn3)cc12)c1cc(F)ccc1F`, for which the Ki is > 3.16 µM (inactive).

The target of a further assay is T2, Serine/threonine-protein kinase TAO1 (Homo sapiens, UniProt Q7L7X3).
T2 sequence (Q7L7X3 whole entry): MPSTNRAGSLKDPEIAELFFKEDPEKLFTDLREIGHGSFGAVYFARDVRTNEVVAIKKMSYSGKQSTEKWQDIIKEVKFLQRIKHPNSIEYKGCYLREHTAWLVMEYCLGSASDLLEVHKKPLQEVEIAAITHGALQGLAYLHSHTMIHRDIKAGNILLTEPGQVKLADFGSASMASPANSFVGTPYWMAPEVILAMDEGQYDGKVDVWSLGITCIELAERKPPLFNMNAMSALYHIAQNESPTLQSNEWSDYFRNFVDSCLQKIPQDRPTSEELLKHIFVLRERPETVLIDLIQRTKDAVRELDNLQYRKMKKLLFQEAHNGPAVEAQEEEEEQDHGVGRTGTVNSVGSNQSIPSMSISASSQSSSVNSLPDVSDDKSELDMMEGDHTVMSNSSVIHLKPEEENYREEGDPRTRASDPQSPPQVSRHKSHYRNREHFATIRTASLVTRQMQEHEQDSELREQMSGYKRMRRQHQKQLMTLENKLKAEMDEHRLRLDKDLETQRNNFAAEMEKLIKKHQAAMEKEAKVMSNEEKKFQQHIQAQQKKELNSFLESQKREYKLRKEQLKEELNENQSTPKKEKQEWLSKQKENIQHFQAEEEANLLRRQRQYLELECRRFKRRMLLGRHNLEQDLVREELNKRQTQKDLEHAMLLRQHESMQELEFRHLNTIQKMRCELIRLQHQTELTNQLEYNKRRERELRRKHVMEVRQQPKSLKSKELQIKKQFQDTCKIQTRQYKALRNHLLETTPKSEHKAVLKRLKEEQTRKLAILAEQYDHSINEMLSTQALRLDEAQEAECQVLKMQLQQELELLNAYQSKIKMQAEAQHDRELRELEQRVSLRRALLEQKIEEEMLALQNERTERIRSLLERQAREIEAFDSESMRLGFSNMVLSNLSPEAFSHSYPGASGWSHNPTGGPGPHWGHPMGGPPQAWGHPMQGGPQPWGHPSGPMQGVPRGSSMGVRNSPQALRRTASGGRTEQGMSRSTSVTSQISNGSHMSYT
The format is functional.
As to `CS(=O)(=O)N(Cc1ccc2[nH]c(=O)c3cccn3c2c1)C1CC1`, the Ki was > 3.98 µM (inactive).

On to `CS(=O)(=O)Nc1ccc(Nc2ccc3[nH]nc(N)c3c2)cc1`, for which the Ki was > 6.31 µM (inactive).

As for `O=C(Nc1n[nH]c2ccc(-c3cn(Cc4ccccc4)nn3)cc12)c1cc(F)ccc1F`, the Ki was > 6.31 µM (inactive).

In the next assay the target is T3, Serine/threonine-protein kinase Chk1 (Homo sapiens, UniProt O14757).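 Also: measured as one member of a kinome-wide kinase profiling panel.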
T3 sequence (O14757 whole entry): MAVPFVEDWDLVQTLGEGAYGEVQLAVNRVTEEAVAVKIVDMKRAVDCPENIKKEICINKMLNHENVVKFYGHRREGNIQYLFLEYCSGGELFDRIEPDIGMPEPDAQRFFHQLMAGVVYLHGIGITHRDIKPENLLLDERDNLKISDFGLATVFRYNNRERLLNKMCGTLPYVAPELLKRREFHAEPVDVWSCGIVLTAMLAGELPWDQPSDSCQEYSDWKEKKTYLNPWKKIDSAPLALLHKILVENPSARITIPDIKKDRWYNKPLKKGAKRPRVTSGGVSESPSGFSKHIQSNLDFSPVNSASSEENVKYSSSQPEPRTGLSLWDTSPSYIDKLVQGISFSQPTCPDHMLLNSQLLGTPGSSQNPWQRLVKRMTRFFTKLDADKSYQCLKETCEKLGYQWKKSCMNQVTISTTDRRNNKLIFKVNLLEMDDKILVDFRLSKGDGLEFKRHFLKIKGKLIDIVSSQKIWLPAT
The assay is classed as functional.
For `CS(=O)(=O)N(Cc1ccc2[nH]c(=O)c3cccn3c2c1)C1CC1`, the Ki is > 6.31 µM (inactive).

Consider `CS(=O)(=O)Nc1ccc(Nc2ccc3[nH]nc(N)c3c2)cc1`, for which the inhibitory constant (Ki) was 2 µM (active).

In the case of `O=C(Nc1n[nH]c2ccc(-c3cn(Cc4ccccc4)nn3)cc12)c1cc(F)ccc1F`, the Ki is > 3.16 µM (inactive).

For the next assay, the target named is Tyrosine-protein kinase Fyn (Homo sapiens, UniProt P06241). The format is functional.
Tyrosine-protein kinase Fyn, sequence (P06241 whole entry): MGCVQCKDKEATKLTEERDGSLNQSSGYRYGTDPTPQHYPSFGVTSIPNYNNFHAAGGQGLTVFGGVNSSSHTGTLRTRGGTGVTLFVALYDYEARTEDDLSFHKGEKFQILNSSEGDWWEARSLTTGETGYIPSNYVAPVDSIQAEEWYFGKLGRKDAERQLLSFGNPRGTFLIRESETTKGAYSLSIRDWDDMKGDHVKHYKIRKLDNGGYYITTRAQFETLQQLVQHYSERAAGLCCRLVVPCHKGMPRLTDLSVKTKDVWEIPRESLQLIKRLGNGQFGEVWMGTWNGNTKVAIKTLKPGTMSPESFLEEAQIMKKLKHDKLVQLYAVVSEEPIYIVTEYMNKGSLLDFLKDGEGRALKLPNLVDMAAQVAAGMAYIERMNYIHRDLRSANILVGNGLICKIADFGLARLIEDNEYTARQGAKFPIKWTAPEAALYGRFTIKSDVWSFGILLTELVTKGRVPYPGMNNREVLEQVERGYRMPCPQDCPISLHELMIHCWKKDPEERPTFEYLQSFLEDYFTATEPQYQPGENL
As for `CS(=O)(=O)N(Cc1ccc2[nH]c(=O)c3cccn3c2c1)C1CC1`, the Ki was > 3.16 µM (inactive).

As to `CS(=O)(=O)Nc1ccc(Nc2ccc3[nH]nc(N)c3c2)cc1`, the Ki was > 6.31 µM (inactive).

On to `O=C(Nc1n[nH]c2ccc(-c3cn(Cc4ccccc4)nn3)cc12)c1cc(F)ccc1F`, for which the Ki is > 6.31 µM (inactive).

A further assay deals with Cyclin-dependent kinase 8 (Homo sapiens, UniProt P49336). Nature of the assay: Navigating the Kinome. Panel member name: CDK8. The format is functional.
Cyclin-dependent kinase 8, sequence (P49336 whole entry): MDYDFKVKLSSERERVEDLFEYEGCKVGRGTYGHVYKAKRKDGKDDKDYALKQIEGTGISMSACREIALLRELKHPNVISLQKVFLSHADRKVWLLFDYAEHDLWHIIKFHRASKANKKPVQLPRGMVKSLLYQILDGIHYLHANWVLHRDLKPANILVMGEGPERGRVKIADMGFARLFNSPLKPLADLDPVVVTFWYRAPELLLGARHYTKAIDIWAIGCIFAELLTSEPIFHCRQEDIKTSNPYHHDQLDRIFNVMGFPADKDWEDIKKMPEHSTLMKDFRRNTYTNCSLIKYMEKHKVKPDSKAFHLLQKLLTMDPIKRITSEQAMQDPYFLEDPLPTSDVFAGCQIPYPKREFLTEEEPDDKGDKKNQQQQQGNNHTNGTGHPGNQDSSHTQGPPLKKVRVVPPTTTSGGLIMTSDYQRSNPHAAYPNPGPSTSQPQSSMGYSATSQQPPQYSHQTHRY
For `CS(=O)(=O)N(Cc1ccc2[nH]c(=O)c3cccn3c2c1)C1CC1`, the Ki is > 3.98 µM (inactive).

Take `CS(=O)(=O)Nc1ccc(Nc2ccc3[nH]nc(N)c3c2)cc1`: the Ki was 2.51 µM (active).

On to `O=C(Nc1n[nH]c2ccc(-c3cn(Cc4ccccc4)nn3)cc12)c1cc(F)ccc1F`, for which the Ki is > 3.98 µM (inactive).

(Values after ChEMBL document CHEMBL1201862, “PubChem BioAssay data set” (2004).)
